According to PubChem BioAssay AID248 (DTP/NCI, 2004):
Several values for one entry are separate records, joined by “and”; a condition that tells them apart may be missing. Identical values can stand only once. Inconclusive results and toxic doses are left out.

System: L1210 leukemia ip in BDF1 mice, survival T/C
Assay: NCI In Vivo Anticancer Drug Screen. Data for tumor model L1210 Leukemia (intraperitoneal) in B6D2F1 (BDF1) mice
Conditions: endpoint: mean survival time, higher = longer survival
How it was run: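 Read-out is survival time, reported as the treated-group measurement over the vehicle-control measurement.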

With `O=C(Nc1ccc(C2=NCCCN2)cc1)c1ccc(NC(=O)c2ccc(C3=NCCCN3)cc2)cc1` as the compound, how does the T/C (dose: 0.03 mg/kg/injection, schedule: Q01DX Z (iv), vehicle: water) read?
The T/C was 107 % of control.

What about the T/C (dose: 0.06 mg/kg/injection, schedule: Q01DX Z (iv), vehicle: water) of the same compound?
The T/C was 102 % of control.

What about the T/C (dose: 0.12 mg/kg/injection, schedule: Q01DX Z (ip), vehicle: carboxymethylcellulose (CMC)) of the same compound?
Its T/C is 102 % of control.

And the T/C (dose: 0.12 mg/kg/injection, schedule: Q01DX Z (iv), vehicle: water)?
The T/C was 113 % of control.

What about the T/C (dose: 0.2 mg/kg/injection, schedule: Q01DX006 (iv), vehicle: carboxymethylcellulose (CMC)) of the same compound?
The T/C was 119 % of control.

And the T/C (dose: 0.25 mg/kg/injection, schedule: Q01DX Z (ip), vehicle: carboxymethylcellulose (CMC))?
The T/C was 103 % of control.

What about the T/C (dose: 0.25 mg/kg/injection, schedule: Q01DX Z (iv), vehicle: water) of the same compound?
Its T/C is 94 % of control.

What about the T/C (dose: 0.4 mg/kg/injection, schedule: Q01DX006 (iv), vehicle: carboxymethylcellulose (CMC)) of the same compound?
The T/C was 113 % of control.

And the T/C (dose: 0.5 mg/kg/injection, schedule: Q01DX Z (ip), vehicle: carboxymethylcellulose (CMC))?
The T/C was 107 % of control.

What about the T/C (dose: 0.5 mg/kg/injection, schedule: Q01DX Z (sc), vehicle: saline) of the same compound?
The T/C was 108 % of control.

And the T/C (dose: 0.6 mg/kg/injection, schedule: Q01DX006 (iv), vehicle: carboxymethylcellulose (CMC))?
Its T/C is 120 % of control.

What about the T/C (dose: 0.8 mg/kg/injection, schedule: Q01DX006 (iv), vehicle: carboxymethylcellulose (CMC)) of the same compound?
Its T/C is 111 % of control.

And the T/C (dose: 0.94 mg/kg/injection, schedule: Q01DX Z (ip), vehicle: saline)?
The T/C was 120 % of control.

What about the T/C (dose: 1.0 mg/kg/injection, schedule: Q01DX Z (sc), vehicle: saline) of the same compound?
The T/C was 110 % of control.

And the T/C (dose: 1.76 mg/kg/injection, schedule: Q01DX015 (ip), vehicle: carboxymethylcellulose (CMC))?
Its T/C is 154 % of control.

And the T/C (dose: 2.0 mg/kg/injection, schedule: Q01DX010 (ip), vehicle: other)?
The T/C was 160 % of control and 162 % of control.

And the T/C (dose: 2.0 mg/kg/injection, schedule: Q01DX Z (sc), vehicle: saline)?
The T/C was 110 % of control.

What about the T/C (dose: 2.6 mg/kg/injection, schedule: Q01DX015 (ip), vehicle: carboxymethylcellulose (CMC)) of the same compound?
Its T/C is 230 % of control.

What about the T/C (dose: 3.75 mg/kg/injection, schedule: Q01DX Z (ip), vehicle: saline) of the same compound?
Its T/C is 245 % of control.

And the T/C (dose: 4.0 mg/kg/injection, schedule: Q01DX010 (ip), vehicle: other)?
The T/C was 215 % of control and 217 % of control and 251 % of control.

What about the T/C (dose: 4.0 mg/kg/injection, schedule: Q01DX015 (ip), vehicle: carboxymethylcellulose (CMC)) of the same compound?
Its T/C is 305 % of control.

And the T/C (dose: 4.0 mg/kg/injection, schedule: Q01DX Z (sc), vehicle: saline)?
Its T/C is 156 % of control and 195 % of control.

And the T/C (dose: 6.0 mg/kg/injection, schedule: Q01DX015 (ip), vehicle: carboxymethylcellulose (CMC))?
The T/C was 319 % of control.

What about the T/C (dose: 8.0 mg/kg/injection, schedule: Q01DX010 (ip), vehicle: other) of the same compound?
The T/C was 245 % of control and 258 % of control and 345 % of control.

What about the T/C (dose: 8.0 mg/kg/injection, schedule: Q01DX Z (sc), vehicle: saline) of the same compound?
The T/C was 259 % of control.

What about the T/C (dose: 9.0 mg/kg/injection, schedule: Q01DX015 (ip), vehicle: carboxymethylcellulose (CMC)) of the same compound?
Its T/C is 180 % of control.

And the T/C (dose: 10.0 mg/kg/injection, schedule: Q01DX010 (sc), vehicle: saline)?
Its T/C is 106 % of control.

And the T/C (dose: 10.0 mg/kg/injection, schedule: Q02DX004 (im), vehicle: olive oil, sesame oil, peanut oil)?
The T/C was 154 % of control and 178 % of control.

What about the T/C (dose: 14.0 mg/kg/injection, schedule: Q01DX001 (ip), vehicle: other) of the same compound?
Its T/C is 156 % of control.

And the T/C (dose: 16.0 mg/kg/injection, schedule: Q01DX010 (ip), vehicle: other)?
The T/C was 97 % of control and 98 % of control and 100 % of control.

And the T/C (dose: 16.0 mg/kg/injection, schedule: Q01DX Z (sc), vehicle: carboxymethylcellulose (CMC))?
The T/C was 102 % of control.

And the T/C (dose: 16.0 mg/kg/injection, schedule: Q01DX Z (sc), vehicle: saline)?
The T/C was 124 % of control.

And the T/C (dose: 20.0 mg/kg/injection, schedule: Q01DX001 (im), vehicle: steriod suspending solution)?
Its T/C is 110 % of control.

And the T/C (dose: 20.0 mg/kg/injection, schedule: Q01DX010 (sc), vehicle: olive oil, sesame oil, peanut oil)?
The T/C was 87 % of control.

What about the T/C (dose: 20.0 mg/kg/injection, schedule: Q01DX010 (sc), vehicle: saline) of the same compound?
The T/C was 87 % of control.

What about the T/C (dose: 20.0 mg/kg/injection, schedule: Q02DX004 (im), vehicle: olive oil, sesame oil, peanut oil) of the same compound?
The T/C was 250 % of control and 285 % of control.

And the T/C (dose: 21.0 mg/kg/injection, schedule: Q01DX001 (ip), vehicle: carboxymethylcellulose (CMC))?
The T/C was 156 % of control.

What about the T/C (dose: 21.0 mg/kg/injection, schedule: Q01DX001 (ip), vehicle: saline) of the same compound?
The T/C was 159 % of control and 172 % of control.

What about the T/C (dose: 32.0 mg/kg/injection, schedule: Q01DX001 (ip), vehicle: carboxymethylcellulose (CMC)) of the same compound?
Its T/C is 172 % of control.

What about the T/C (dose: 32.0 mg/kg/injection, schedule: Q01DX001 (ip), vehicle: other) of the same compound?
Its T/C is 202 % of control.

And the T/C (dose: 32.0 mg/kg/injection, schedule: Q01DX001 (ip), vehicle: saline)?
Its T/C is 196 % of control.

And the T/C (dose: 40.0 mg/kg/injection, schedule: Q01DX001 (im), vehicle: steriod suspending solution)?
The T/C was 173 % of control.

And the T/C (dose: 40.0 mg/kg/injection, schedule: Q02DX004 (im), vehicle: olive oil, sesame oil, peanut oil)?
Its T/C is 100 % of control and 86 % of control.

And the T/C (dose: 48.0 mg/kg/injection, schedule: Q01DX001 (ip), vehicle: carboxymethylcellulose (CMC))?
The T/C was 219 % of control.

What about the T/C (dose: 48.0 mg/kg/injection, schedule: Q01DX001 (ip), vehicle: saline) of the same compound?
Its T/C is 243 % of control and 247 % of control.

And the T/C (dose: 62.0 mg/kg/injection, schedule: Q01DX Z (oral), vehicle: carboxymethylcellulose (CMC))?
The T/C was 102 % of control.

And the T/C (dose: 62.5 mg/kg/injection, schedule: Q01DX010 (oral), vehicle: other)?
The T/C was 105 % of control.

And the T/C (dose: 72.0 mg/kg/injection, schedule: Q01DX001 (ip), vehicle: saline)?
The T/C was 103 % of control and 229 % of control.

What about the T/C (dose: 90.0 mg/kg/injection, schedule: Q#A X Z (oral), vehicle: carboxymethylcellulose (CMC)) of the same compound?
The T/C was 100 % of control.

What about the T/C (dose: 125.0 mg/kg/injection, schedule: Q01DX010 (oral), vehicle: other) of the same compound?
Its T/C is 177 % of control.

What about the T/C (dose: 125.0 mg/kg/injection, schedule: Q01DX Z (oral), vehicle: carboxymethylcellulose (CMC)) of the same compound?
The T/C was 105 % of control.

What about the T/C (dose: 125.0 mg/kg/injection, schedule: Q01DX Z (oral), vehicle: saline) of the same compound?
Its T/C is 92 % of control.

And the T/C (dose: 135.0 mg/kg/injection, schedule: Q#A X Z (oral), vehicle: carboxymethylcellulose (CMC))?
The T/C was 91 % of control.

What about the T/C (dose: 180.0 mg/kg/injection, schedule: Q01DX Z (oral), vehicle: carboxymethylcellulose (CMC)) of the same compound?
The T/C was 108 % of control.

And the T/C (dose: 202.5 mg/kg/injection, schedule: Q#A X Z (oral), vehicle: carboxymethylcellulose (CMC))?
Its T/C is 115 % of control.

What about the T/C (dose: 250.0 mg/kg/injection, schedule: Q01DX010 (oral), vehicle: other) of the same compound?
Its T/C is 194 % of control.

And the T/C (dose: 250.0 mg/kg/injection, schedule: Q01DX Z (oral), vehicle: carboxymethylcellulose (CMC))?
Its T/C is 120 % of control.

What about the T/C (dose: 250.0 mg/kg/injection, schedule: Q01DX Z (oral), vehicle: saline) of the same compound?
Its T/C is 89 % of control.

What about the T/C (dose: 270.0 mg/kg/injection, schedule: Q01DX Z (oral), vehicle: carboxymethylcellulose (CMC)) of the same compound?
The T/C was 102 % of control.

And the T/C (dose: 405.0 mg/kg/injection, schedule: Q01DX Z (oral), vehicle: carboxymethylcellulose (CMC))?
The T/C was 120 % of control.

What about the T/C (dose: 500.0 mg/kg/injection, schedule: Q01DX010 (oral), vehicle: other) of the same compound?
The T/C was 122 % of control.

What about the T/C (dose: 500.0 mg/kg/injection, schedule: Q01DX Z (oral), vehicle: saline) of the same compound?
The T/C was 113 % of control.

And the T/C (dose: 540.0 mg/kg/injection, schedule: Q03DX Z (oral), vehicle: carboxymethylcellulose (CMC))?
Its T/C is 98 % of control.

What about the T/C (dose: 800.0 mg/kg/injection, schedule: Q03DX Z (oral), vehicle: carboxymethylcellulose (CMC)) of the same compound?
The T/C was 112 % of control.

What about the T/C (dose: 1200.0 mg/kg/injection, schedule: Q03DX Z (oral), vehicle: carboxymethylcellulose (CMC)) of the same compound?
Its T/C is 120 % of control.

What about the T/C (dose: 1200.0 mg/kg/injection, schedule: Q07DX Z (oral), vehicle: carboxymethylcellulose (CMC)) of the same compound?
The T/C was 95 % of control.

And the T/C (dose: 1800.0 mg/kg/injection, schedule: Q07DX Z (oral), vehicle: carboxymethylcellulose (CMC))?
The T/C was 106 % of control.

And the T/C (dose: 2700.0 mg/kg/injection, schedule: Q07DX Z (oral), vehicle: carboxymethylcellulose (CMC))?
Its T/C is 124 % of control.

How did the T/C (dose: 100.0 mg/kg/injection, schedule: Q01DX001 (ip), vehicle: carboxymethylcellulose (CMC)) turn out when `O=C1/C(=C/c2cccc3ccccc23)CCc2ccccc21` was run?
Its T/C is 97 % of control.

And the T/C (dose: 200.0 mg/kg/injection, schedule: Q01DX001 (ip), vehicle: carboxymethylcellulose (CMC))?
Its T/C is 95 % of control.

What about the T/C (dose: 400.0 mg/kg/injection, schedule: Q01DX001 (ip), vehicle: carboxymethylcellulose (CMC)) of the same compound?
The T/C was 97 % of control.

`CNC(C)=O` was tested. Which T/C (dose: 100.0 mg/kg/injection, schedule: Q01DX001 (ip), vehicle: saline) did it give?
Its T/C is 100 % of control.

And the T/C (dose: 100.0 mg/kg/injection, schedule: Q01DX009 (ip), vehicle: saline)?
The T/C was 110 % of control.

And the T/C (dose: 125.0 mg/kg/injection, schedule: Q01DX Z (ip), vehicle: carboxymethylcellulose (CMC))?
Its T/C is 86 % of control.

What about the T/C (dose: 200.0 mg/kg/injection, schedule: Q01DX001 (ip), vehicle: saline) of the same compound?
The T/C was 97 % of control.

What about the T/C (dose: 200.0 mg/kg/injection, schedule: Q01DX009 (ip), vehicle: saline) of the same compound?
The T/C was 107 % of control.

And the T/C (dose: 400.0 mg/kg/injection, schedule: Q01DX001 (ip), vehicle: saline)?
Its T/C is 95 % of control.

What about the T/C (dose: 400.0 mg/kg/injection, schedule: Q01DX009 (ip), vehicle: saline) of the same compound?
The T/C was 115 % of control.

What about the T/C (dose: 500.0 mg/kg/injection, schedule: Q01DX Z (ip), vehicle: carboxymethylcellulose (CMC)) of the same compound?
The T/C was 86 % of control.

What about the T/C (dose: 1000.0 mg/kg/injection, schedule: Q01DX Z (ip), vehicle: carboxymethylcellulose (CMC)) of the same compound?
The T/C was 110 % of control.
